# Results: patent US20040157809A1, “Composition comprising an androgen receptor blocker and an insulin sensitizing agent and use thereof for treatment of polycystic ovary syndrome” (priority 2001, published 2004)
# How the values were obtained:
# [1] = tested on: women with ovarian hyperandrogenism; test: Example 1: ovulation assessment by weekly serum progesterone; assay type: in vivo, human; settings: after 9 months; weekly serum progesterone measurements
# Text: Prior to start of treatment, ovulatory function was documented twice (months −3 and −1) by measuring serum progesterone concentrations in 4 consecutive samples obtained with an interval of 1 week. […] The ovulation results before start of treatment are the average of the results obtained during month -3 and -1, whereas the 3 months results are the mean of those obtained after 2 and 4 months on treatment.
# [2] = tested on: women with ovarian hyperandrogenism; test: Example 1: tolerability and safety variables (blood count, liver-kidney function); assay type: in vivo, human; settings: flutamide 250 mg/day
# Text: After 6 months on either monotherapy or combined therapy, fasting glucose and insulin were reassessed together with serum LH (luteinizing hormone), FSH (Follicle stimulating hormone), estradiol, testosterone, androstenedione, DHEAS, SHBG, and lipid profile. Blood count and liver-kidney function were also screened after 1, 3, and 6 months, as additional safety variables.
smiles,measurement,setting,value
"CC(C)C(=O)Nc1ccc([N+](=O)[O-])c(C(F)(F)F)c1 [Flutamide, 2-methyl-N-[4-nitro-3(trifluoromethyl)phenyl] popanamide]",monthly fraction of ovulatory cycles,[1],20%
same,women complaining of dry skin,[2],1 of 10
